Results on one compound are retold here after US9765035B2 (priority 2013, dated 2017).

Read-outs that look alike come from different tables or passages of the source.

For assay [1], the target named is human PRMT6 (Homo sapiens, UniProt Q96LA8). Description: biochemical. An excerpt: General Materials. S-adenosylmethionine (SAM), S-adenosylhomocysteine (SAH), bicine, Tween20, dimethylsulfoxide (DMSO), bovine skin gelatin (BSG), sodium butyrate and Tris(2-carboxyethyl)phosphine hydrochloride solution (TCEP) were purchased from Sigma-Aldrich at the highest level of purity possible. ^3H-SAM was purchase from American Radiolabeled Chemicals with a specific activity of 80 Ci/mmol. 384-well streptavidin Flashplates were purchased from PerkinElmer.
Substrates. Peptide representative of human histone H4 residues 36-50 was synthesized with an N-terminal linker-affinity tag motif and a C-terminal amide cap by 21st Century Biochemicals. The peptide was purified by high-performance liquid chromatography (HPLC) to greater than 95% purity and confirmed by liquid chromatography mass spectrometry (LC-MS). The sequence was Biot-Ahx-[…]-amide and contained a monomethylated lysine at position 44 (SEQ ID NO.:5).
Molecular Biology: Full-length human PRMT6 (NM_018137.2) transcript clone was amplified from an HEK 293 cDNA library, incorporating a flanking 5′ sequence encoding a FLAG tag ([…]) (SEQ ID NO.:6) fused directly to Ser 2 of PRMT6 and a 3′ sequence encoding a hexa His sequence (HHHHHH) (SEQ ID NO.: 17) fused directly to Asp 375. The amplified gene was subcloned into pFastBacMam (Viva Biotech).
Protein Expression. Recombinant baculovirus were generated according to Bac-to-Bac kit instructions (Life Technologies). […] Infections were carried out at 37° C. for 48 hours, harvested by centrifugation, and stored at −80° C. for purification.
Protein Purification. […] Column was washed with 20 mM imidazole in the same buffer and Flag-PRMT6-His was eluted with 150 mM imidazole. Pooled fractions were dialysed against buffer Ni-A and further purified by anti-flag M2 affinity chromatography. Flag-PRMT6-His was eluted with 200 ug/ml FLAG peptide in the same buffer. Pooled fractions were dialysed in 20 mM Tris, 150 mM NaCl, 10% glycerol and 5 mM β-mercaptoethanol, pH 7.8. The purity of recovered protein was 95%.
General Procedure for PRMT6 Enzyme Assays on Peptide Substrates. The assays were all performed in a buffer consisting of 20 mM Bicine (pH=7.6), 1 mM TCEP, 0.005% BSG, and 0.002% Tween 20, prepared on the day of use. Compounds in 100% DMSO (1 ul) were spotted into a polypropylene 384-well V-bottom plates (Greiner) using a Platemate Plus outfitted with a 384-channel head (Thermo Scientific). DMSO (1 ul) was added to Columns 11, 12, 23, 24, rows A-H for the maximum signal control and 1 ul of SAH, a known product and inhibitor of PRMT6, was added to columns 11, 12, 23, 24, rows I-P for the minimum signal control. A cocktail (40 ul) containing the PRMT6 enzyme was added by Multidrop Combi (Thermo-Fisher). The compounds were allowed to incubate with PRMT6 for 30 min at room temperature, then a cocktail (10 ul) containing SAM and peptide was added to initiate the reaction (final volume=51 ul). The final concentrations of the components were as follows: PRMT6 was 1 nM, ^3H-SAM was 200 nM, non-radiolabeled SAM was 250 nM, peptide was 75 nM, SAH in the minimum signal control wells was 1 mM, and the DMSO concentration was 2%. The assays were stopped by the addition of non-radiolabeled SAM (10 ul) to a final concentration of 400 uM, which dilutes the ^3H-SAM to a level where its incorporation into the peptide substrate is no longer detectable. 50 ul of the reaction in the 384-well polypropylene plate was then transferred to a 384-well Flashplate and the biotinylated peptides were allowed to bind to the streptavidin surface for at least 1 hour before being washed once with 0.1% Tween20 in a Biotek EL×405 plate washer. The plates were then read in a PerkinElmer TopCount plate reader to measure the quantity of ^3H-labeled peptide bound to the Flashplate surface, measured as disintegrations per minute (dpm) or alternatively, referred to as counts per minute (cpm). […]

In assay [2] the test system is RKO cells, mono-methyl arginine. The experiment in a line: RKO Methylation Assay (In Cell Western for mono-methyl arginine). The class given is cell-based. The conditions noted are these: Homo sapiens, 72 hours. An excerpt: RKO adherent cells were purchased from ATCC (American Type Culture Collection), Manassas, Va., USA. DMEM/Glutamax medium, penicillin-streptomycin, heat inactivated fetal bovine serum, 0.05% trypsin and D-PBS were purchased from Life Technologies, Grand Island, N.Y., USA. Odyssey blocking buffer, 800CW goat anti-rabbit IgG (H+L) antibody, and Licor Odyssey infrared scanner were purchased from Licor Biosciences, Lincoln, Nebr., USA. Mono-methyl arginine antibody was purchased from Cell Signaling Technology, Danvers, Mass., USA. Methanol was purchased from VWR, Franklin, Mass., USA. 10% Tween 20 was purchased from KPL, Inc., Gaithersburg, Md., USA. DRAQ5 was purchased from Biostatus Limited, Leicestershire, UK.
RKO adherent cells were maintained in growth medium (DMEM/Glutamax medium supplemented with 10% v/v heat inactivated fetal bovine serum and 100 units/mL penicillin-streptomycin) and cultured at 37° C. under 5% CO2.
Cell Treatment, in Cell Western (ICW) for Detection of Mono-Methyl Arginine and DNA Content. […] Compound (100 nL) from a 96-well source plate was added directly to 384 well cell plate. Plates were incubated at 37° C., 5% CO2 for 72 hours. After three days of incubation, plates were brought to room temperature outside of the incubator for ten minutes and blotted on paper towels to remove cell media. 50 μL of ice cold 100% methanol was added directly to each well and incubated for 30 min at room temperature. After 30 min, plates were transferred to a Biotek EL406 plate washer and washed 2 times with 100 μL per well of wash buffer (1×PBS). Next 60 μL per well of Odyssey blocking buffer (Odyssey Buffer with 0.1% Tween 20 (v/v)) were added to each plate and incubated 1 hour at room temperature. Blocking buffer was removed and 20 μL per well of primary antibody was added (mono-methyl arginine diluted 1:200 in Odyssey buffer with 0.1% Tween 20 (v/v)) and plates were incubated overnight (16 hours) at 4° C. Plates were washed 5 times with 100 μL per well of wash buffer. […] The plates were washed 5 times with 100 μL per well wash buffer then 2 times with 100 μL per well of water. Plates were allowed to dry at room temperature then imaged on the Licor Odyssey machine which measures integrated intensity at 700 nm and 800 nm wavelengths. Both 700 and 800 channels were scanned.
Calculations: First, the ratio for each well was determined by:
Each plate included fourteen control wells of DMSO only treatment (minimum activation) as well as fourteen control wells for maximum activation treated with 20 μM of a reference compound. The average of the ratio values for each control type was calculated and used to determine the percent activation for each test well in the plate. Reference compound was serially diluted three-fold in DMSO for a total of nine test concentrations, beginning at 20 μM. Percent activation was determined and EC30 curves were generated using triplicate wells per concentration of compound.

Chain of human PRMT6 (Q96LA8 with tags, fused parts or gaps): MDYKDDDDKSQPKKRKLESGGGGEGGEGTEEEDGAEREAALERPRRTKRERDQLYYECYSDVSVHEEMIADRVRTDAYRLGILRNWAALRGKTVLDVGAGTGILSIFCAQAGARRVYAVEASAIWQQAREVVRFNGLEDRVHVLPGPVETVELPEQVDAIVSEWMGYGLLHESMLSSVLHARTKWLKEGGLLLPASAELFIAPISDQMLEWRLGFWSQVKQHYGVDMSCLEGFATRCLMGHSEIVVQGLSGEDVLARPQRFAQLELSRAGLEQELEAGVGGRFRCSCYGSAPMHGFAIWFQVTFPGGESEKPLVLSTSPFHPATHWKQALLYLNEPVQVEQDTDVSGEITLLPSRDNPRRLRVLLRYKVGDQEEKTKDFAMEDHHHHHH

As for `CNCCN(C)Cc1n[nH]c2ccc(OC(C)C(C)C)cc12` (stereo not shown) [Compound 4], the IC50 was under 100 nM in assay [1] (biochemical evaluation, peptide substrate, read-out: PRMT6 IC50) and 36.4 nM in assay [1] (single experiment or average of multiple experiments, read-out: PRMT6 biochemical evaluation (numerical)). Besides, the EC30 is 1680 nM in assay [2] (In Cell Western EC30, RKO cells, single experiment or average of multiple experiments, read-out: RGG ICW) and under 3000 nM in assay [2] (In Cell Western, RKO cells, read-out: RGG ICW EC30).
